For twelve compounds, EC50 results are on record in patent US20250304542A1, “Fused Heterobicyclic Antiviral Agents” (Enanta Pharmaceuticals, Inc., priority 2024, published 2025).

The structures appear in SMILES notation. pEC50: −log10 of the molar value.

Test [1] concerns the target T1, NTCP (Homo sapiens, UniProt Q14973).
T1 construct: expressed in transfected cells; host or cells: HepG2-NTCP (A3 clone, kept under puromycin)
T1 sequence (Q14973 1-349): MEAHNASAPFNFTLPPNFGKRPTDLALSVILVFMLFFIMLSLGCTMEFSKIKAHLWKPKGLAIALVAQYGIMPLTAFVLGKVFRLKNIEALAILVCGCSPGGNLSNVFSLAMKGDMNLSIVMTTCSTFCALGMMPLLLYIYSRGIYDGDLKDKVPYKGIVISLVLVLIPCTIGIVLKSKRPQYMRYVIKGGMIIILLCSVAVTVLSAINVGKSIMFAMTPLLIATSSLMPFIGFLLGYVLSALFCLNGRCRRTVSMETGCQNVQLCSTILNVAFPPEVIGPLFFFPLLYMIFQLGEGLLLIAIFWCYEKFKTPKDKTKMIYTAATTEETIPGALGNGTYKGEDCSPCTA
Briefly: HepG2-NTCP preS1 Binding Competition Assay. The note with it: HepG2-NTCP cells pre-treated 2 hours, FITC-labeled myristoylated preS1 peptide co-incubated 30 minutes, cell-surface fluorescence; read-out: Cellular EC50. The method, then: Myristoylated preS1 peptide (2-48 aa) conjugated to a C-terminal FITC tag was synthesized to evaluate preS1 binding to NTCP-expressing cells. HepG2-NTCP cells seeded in 384-wells were pre-treated with compounds for 2 hours prior to the addition of FITC-labeled preS1 peptide. After co-incubation for 30 minutes, unbound FITC-preS1 peptide was washed twice with PBS, and the fluorescence of preS1-FITC bound to cell surface was detected by Envision plate reader. EC50 ranges are as follows: A<0.1 μM; B 0.1-1 μM; C>1 μM. A dash (-) indicates the compound was not tested.

Test [2] concerns HBV. Kind of test: HBV Infection in HepG2-NTCP Cells (HBeAg AlphaLISA). Type of test: cell-based. To be noted: Hepatitis B virus, 192 h, read-out: Cellular EC50 (μM). As to the method: HepG2-NTCP A3 cells were maintained in DMEM media supplemented with GlutaMAX™, 10% fetal bovine serum, 1% penicillin/streptomycin, and 5 μg/mL puromycin at 37° C. in a humidified atmosphere with 5% CO2 in a collagen-coated tissue culture flask.
HepG2-NTCP cells were seeded in 384 well plate containing 16,000 cells/well two days prior to the infection. On the day of infection, compounds were 3-fold serially diluted in DMSO and pre-incubated with HepG2-NTCP cells for two hours before purified HBV addition. HBV infection was carried out at 2000 GE/cell with 4% PEG, and the final concentration of DMSO is 0.5%. On day one post infection, HBV-containing media was aspirated, cells were washed once with PBS and then maintained in 2.5% DMSO containing media for the remainder of the assay.
Supernatants from infected HepG2-NTCP cells were collected at day 8 post infection, and the amount of viral antigen HBeAg was measured by HBeAg AlphaLISA detection kit (PerkinElmer) following the manufacturer's recommended protocol. Irrespective of readout, compound concentrations that reduce viral product accumulation in supernatants by 50% relative to DMSO controls (EC50) are reported. EC50 ranges are as follows: A<0.1 μM; B 0.1-1 μM; C>1 μM. A dash (-) indicates the compound was not tested.
For orientation: Bead proximity is the source of the signal in Alpha formats.

As for `CC(C)COC(=O)N[C@@H](CCc1cc2c(cc1Cl)N(c1ccccc1)C[C@@H](C1CCCCC1)N(C)S2(=O)=O)C(=O)O` [Example 14, (S)-4-((R)-7-chloro-3-cyclohexyl-2-methyl-1,1-dioxido-5-phenyl-2,3,4,5-tetrahydrobenzo[f][1,2,5]thiadiazepin-8-yl)-2-((isobutoxycarbonyl)amino)butanoic acid], the pEC50 (commonly the EC50 on a negative log10 scale, so that one unit is a factor of ten) in test [1] is 6.00 to 7.00. Moreover, the EC50 (commonly the concentration at which the effect is half-maximal) in test [2] was < 0.1 µM.

On to `CC(C)COC(=O)N[C@H](CCc1cc2c(cc1Cl)N(c1ccccc1)C[C@@H](C1CCCCC1)N(C)S2(=O)=O)C(=O)O` [Example 15], for which the pEC50 in test [1] was 6.00 to 7.00. The EC50 in test [2] is < 0.1 µM.

Turning to `CCCCCOC(=O)N[C@@H](CCc1cc2c(cc1Cl)N(c1ccccc1)C[C@@H](C1CCCCC1)N(C)S2(=O)=O)C(=O)O` [Example 16], the pEC50 in test [1] was 6.00 to 7.00. For the same compound, the EC50 in test [2] was in the range of 0.1 to 1 µM.

Regarding `CN1[C@H](C2CCCCC2)CN(c2ccccc2)c2cc(Cl)c(CC[C@H](NC(=O)OCc3ccccc3)C(=O)O)cc2S1(=O)=O` [Example 22], in test [1], the pEC50 is 6.00 to 7.00. Further, the EC50 in test [2] fell in the range of 0.1 to 1 µM.

In the case of `CC(C)CS(=O)(=O)N[C@H](CCc1cc2c(cc1Cl)N(c1ccccc1)C[C@@H](C1CCCCC1)N(C)S2(=O)=O)C(=O)O` [Example 29], the pEC50 in test [1] is > 7.00. In test [2], the EC50 was 0.1 to 1 µM.

With `CCCCN(C)C(=O)C(=O)N[C@@H](CCc1cc2c(cc1Cl)N(c1ccccc1)C[C@@H](C1CCCCC1)N(C)S2(=O)=O)C(=O)O` [Example 32, (S)-2-(2-(butyl(methyl)amino)-2-oxoacetamido)-4-((R)-7-chloro-3-cyclohexyl-2-methyl-1,1-dioxido-5-phenyl-2,3,4,5-tetrahydrobenzo[f][1,2,5]thiadiazepin-8-yl)butanoic acid], in test [1], the pEC50 is > 7.00. Also, in test [2], the EC50 is < 0.1 µM.

In the case of `CCCCN(C)C(=O)C(=O)N[C@H](CCc1cc2c(cc1Cl)N(c1ccccc1)C[C@@H](C1CCCCC1)N(C)S2(=O)=O)C(=O)O` [Example 33], the pEC50 in test [1] was 6.00 to 7.00. For the same compound, the EC50 in test [2] fell in the range of 0.1 to 1 µM.

For `CCCCNC(=O)C(=O)N[C@@H](CCc1cc2c(cc1Cl)N(c1ccccc1)C[C@@H](C1CCCCC1)N(C)S2(=O)=O)C(=O)O` [Example 34], the pEC50 in test [1] was > 7.00. In addition, in test [2], the EC50 was < 0.1 µM.

For `CNc1cc2c(cc1C(=O)N[C@H](C(=O)O)c1ccc(C(F)(F)F)cc1)S(=O)(=O)N(C)[C@H](C1CCCCC1)CN2c1ccccc1` [Example 39, (S)-2-((R)-3-cyclohexyl-2-methyl-7-(methylamino)-1,1-dioxido-5-phenyl-2,3,4,5-tetrahydrobenzo[f][1,2,5]thiadiazepine-8-carboxamido)-2-(4-(trifluoromethyl)phenyl)acetic acid], the pEC50 in test [1] was > 7.00. Further, the EC50 in test [2] was < 0.1 µM.

For the compound `CNc1cc2c(cc1C(=O)N[C@H](C(=O)O)c1ccsc1)S(=O)(=O)N(C)[C@H](C1CCCCC1)CN2c1ccccc1` [Example 40], in test [1], the negative-log EC50 (pEC50) is > 7.00. The EC50 in test [2] is 0.1 to 1 µM.

Regarding `CNc1cc2c(cc1C(=O)N[C@H](C(=O)O)C1CCCCC1)S(=O)(=O)N(C)[C@H](C1CCCCC1)CN2c1ccccc1` [Example 41], the pEC50 in test [1] is > 7.00. For the same compound, the EC50 in test [2] was < 0.1 µM.

On to `CNc1cc2c(cc1C(=O)N[C@H](C(=O)O)c1cccc(Cl)c1)S(=O)(=O)N(C)[C@H](C1CCCCC1)CN2c1ccccc1` [Example 45], for which, in test [1], the pEC50 is > 7.00. Moreover, the EC50 in test [2] was < 0.1 µM.
